Patent publication US7365049B2, “Afamin-containing compositions and methods of use” (Vitateg Biotechnology GmbH, priority 2001, dated 2008)
“Also recorded” adds a separate entry of the source.

T1: Afamin (Homo sapiens, UniProt P43652)
T1 sequence (P43652 22-599): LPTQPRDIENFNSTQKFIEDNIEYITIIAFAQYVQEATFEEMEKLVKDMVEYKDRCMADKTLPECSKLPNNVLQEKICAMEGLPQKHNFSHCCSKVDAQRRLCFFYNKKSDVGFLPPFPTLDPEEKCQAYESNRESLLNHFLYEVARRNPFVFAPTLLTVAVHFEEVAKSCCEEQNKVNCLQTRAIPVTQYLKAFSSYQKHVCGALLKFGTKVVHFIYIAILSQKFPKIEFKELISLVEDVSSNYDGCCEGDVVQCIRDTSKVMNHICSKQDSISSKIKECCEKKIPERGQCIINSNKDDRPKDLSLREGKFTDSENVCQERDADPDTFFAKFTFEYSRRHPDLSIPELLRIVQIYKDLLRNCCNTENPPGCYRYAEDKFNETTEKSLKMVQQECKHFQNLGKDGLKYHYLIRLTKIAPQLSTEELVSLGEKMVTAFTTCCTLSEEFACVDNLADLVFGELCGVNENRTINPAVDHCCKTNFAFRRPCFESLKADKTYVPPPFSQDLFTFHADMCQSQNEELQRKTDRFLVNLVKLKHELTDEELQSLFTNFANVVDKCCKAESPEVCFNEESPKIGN


Experiments:
[1] = test system: isolated cortical neurons of chicken embryos; assay: Low serum assay (2% serum), MTT viability of isolated cortical neurons; type: cell-based; settings: partial serum withdrawal to 2%, FIG. 2a
Protocol: (§1) The neuroprotective effect of Afamin was examined by assaying isolated cortical neurons of chicken embryos. The effect of Afamin was tested in a low-serum assay and in two lesion assays, namely in a β-amyloid and a H2O2-lesion assay.
(§2) After the low serum assay or the lesion assay, the MTT assay is used to check the viability of neuronal cells (MTT=3-(4,5-dimethylthiazol-2-yl)-2,5-[…]). This is a suitable model which is extremely reproducible. The test also allows for assaying a large number of samples, and dose-dependent differences in the activity of a substance can be evaluated.
(§3) The neuronal viability of cells in vitro can be determined by means of this […] MTT test. The MTT assay is based on the metabolic reduction of MTT, a substance of yellow color, to dark-blue formazane crystals by mitochondrial dehydrogenases (e.g. succinate dehydrogenase). The crystals are dissolved, and the spectrometric absorption is measured at a suitable wave length.
(§4) In detail, isolated cortical neurons of 8- (lesion assays) or 9- (low serum assay) day-old chicken embryos (White Leghorn or Lohman Brown Hybrid strain) were used.
(§5) The neurons were prepared by breaking ethanoltreated eggs and putting the embryos into a plastic dish. […]
(§6) At the end of each experiment, the viability of the cultures was tested by means of the MTT assay with a plate reader at 570 nm.

Afamin = target: T1, Afamin; assay: Scatchard-plot analysis of the binding of vitamin E to Afamin; settings: FIG. 3
[2] = test system: isolated cortical neurons of chicken embryos; assay: β-amyloid lesion assay, MTT viability of isolated cortical neurons; type: cell-based; settings: 20 μM pre-aggregated β-amyloid peptide (Aβ25-35) for 72 hours, FIG. 2c
Protocol: as §1, §2, §3, §4, §5, §6

[3] = test system: isolated cortical neurons of chicken embryos; assay: H2O2-lesion assay, MTT viability of isolated cortical neurons; type: cell-based; settings: 100 μM H2O2 for 24 h, FIG. 2b
Protocol: After the low serum assay or the lesion assay, the MTT assay is used to check the viability of neuronal cells (MTT=3-(4,5-dimethylthiazol-2-yl)-2,5-diphenyltriazolium bromide).
The neuronal viability of cells in vitro can be determined by means of this calorimetric MTT test. The MTT assay is based on the metabolic reduction of MTT, a substance of yellow color, to dark-blue formazane crystals by mitochondrial dehydrogenases (e.g. succinate dehydrogenase). The crystals are dissolved, and the spectrometric absorption is measured at a suitable wave length.
The neurons were prepared by breaking ethanoltreated eggs and putting the embryos into a plastic dish. After decapitation, the hemispheres were removed and collected. Loose tissue and meningial membranes were removed, and the hemispheres were mechanically dissociated.
80 μl cell suspension containing 6×10^5 cells/ml nutrient medium were added to each well of the microtiter plate which already contained 80 μl of medium with or without the substances. The plates were kept at 37° C., 95% humidity and 5% CO2 without a change of media (up to 8 DIV).
The low serum medium contains 100 ml of DEMEM with 1 g of glucose/l, 2% fetal calf serum, 0.01% Gentamycin and 2 mM L-glutamine. The nutrient medium for the lesion assays contains 100 ml of DMEM with 4.5 g of glucose/l, 5% fetal calf serum, 0.01% gentamycin and 2 mM L-glutamine.
At DIV 8, the cells were treated with 20 μM of pre-aggregated β-amyloid peptide (Aβ25-35; Sigma) for 72 hours, or with 100 μM H2O2 for 24 h.

[4] = test system: glutamine synthetase (GS); assay: 3-NP-induced reduction of glutamine synthetase (GS) activity in brain spheroids; type: cell-based; settings: 5-day treatment with 3-NP (0.5 and 5 mM), Afamin 0.3 and 3 μg/ml without vitamin E, FIG. 1
Text: Because of the mechanistic and pathological similarities between 3-NP lesions and Hungington's Disease (HD), 3-NP has been proposed as an alternative HD-model. Malonate and 3-NP are inhibitors of the succinate dehydrogenase which produce an energy loss and lesions which are similar to those observed in HD. Systemic administration of 3-NP causes a progressive locomotory deterioration which corresponds to that of HD.
After the extraction of brain spheroids and a one-week culturing, D,L-alpha-tocopherol (0.1 mM) were added to the medium. Two weeks old spheroids were plated in a plate having six wells. Shortly after the exposure, the medium was replaced by 2 ml of fresh medium. The spheroids were exposed to 3-NP (0.5 and 5 mM, pH adjusted to 7 to 8), or to the protectors vitamin E (0.1 mM), glutathione (1 mM), DTT (0.25 mM), L-NAME (N(G)-nitro-L-[…]-methylester) (0.1 mM), Afamin (without vitamin E (0.3 and 3 μg/ml) or combinations of 3-NP with the protectors for 5 days. After 2 days, freshly prepared 3-NP and protectors were added to the medium (Mathews et al., J. Neurosci, 18(1) (1998), 156-163); Borlongan et al., Neurosci Biohav. Res. 21(3) (1997), 289-293).
The results are illustrated in FIG. 1. […] As mentioned before, this system with 3NP constitutes a recognized model for excitotoxicity and serves as a model for Huntington's Disease.

Molecule | reduction of apoptosis / neuronal cell death in low serum medium [1] | theoretical maximum loading of an Afamin molecule (Afamin) | reduction of damage / neuronal cell death by β-amyloid peptide [2] | reduction of damage / neuronal cell death by H2O2 [3] | protection of glutamine synthetase activity against inactivation by 3NP [4]
Cc1c(C)c2c(c(C)c1O)CCC(C)(CCCC(C)CCCC(C)CCCC(C)C)O2 [vitamin E, D,L-alpha-tocopherol, reference compound] | capable of reducing the apoptosis | 18 molecules of vitamin E | capable of reducing | capable of reducing | 
Afamin: 87 kDa protein which belongs to the albumin group; cloned and sequenced, also available in recombinant form (protein, UniProt P43652 22-599, looked up) Afamin: LPTQPRDIENFNSTQKFIEDNIEYITIIAFAQYVQEATFEEMEKLVKDMVEYKDRCMADKTLPECSKLPNNVLQEKICAMEGLPQKHNFSHCCSKVDAQRRLCFFYNKKSDVGFLPPFPTLDPEEKCQAYESNRESLLNHFLYEVARRNPFVFAPTLLTVAVHFEEVAKSCCEEQNKVNCLQTRAIPVTQYLKAFSSYQKHVCGALLKFGTKVVHFIYIAILSQKFPKIEFKELISLVEDVSSNYDGCCEGDVVQCIRDTSKVMNHICSKQDSISSKIKECCEKKIPERGQCIINSNKDDRPKDLSLREGKFTDSENVCQERDADPDTFFAKFTFEYSRRHPDLSIPELLRIVQIYKDLLRNCCNTENPPGCYRYAEDKFNETTEKSLKMVQQECKHFQNLGKDGLKYHYLIRLTKIAPQLSTEELVSLGEKMVTAFTTCCTLSEEFACVDNLADLVFGELCGVNENRTINPAVDHCCKTNFAFRRPCFESLKADKTYVPPPFSQDLFTFHADMCQSQNEELQRKTDRFLVNLVKLKHELTDEELQSLFTNFANVVDKCCKAESPEVCFNEESPKIGN | protects against neuronal cell death; also recorded: capable of reducing the apoptosis |  | protects against neuronal cell death; also recorded: capable of reducing | protects against neuronal cell death; also recorded: capable of reducing | by far the highest effect of all the tested substances
